Data on 8 molecules can be found in patent US20210346460A1, “TREATMENTS FOR COVID-19-RELATED SYSTEMIC SCLEROSIS, VASCULAR INSUFFICIENCY, DISTAL ISCHEMIA, AND RELATED DISEASE CONDITIONS” (priority 2020, published 2021).

In assay [1] the test system is pregnant uterine arteries. Put plainly: PGI2 release in pregnant uterine arteries. From the text:
(§1) Accordingly, as may be observed, there is an inverse relationship depending on the vascular circuit.
(§2) With reference to FIGS. 5A and 5B, the inventor's laboratory data indicates the presence of GABA-a receptors in both systemic vessels and uterine vessel in pregnant animals. […] It may be noted that the third and last columns of FIG. 5A and the last two columns of FIG. 5B reflect competition on the GABA-a receptor between GABA and bicuculine. GABA improves PGI2 response substantially more in the absence of GABA-a receptor competition (e.g., bicuculine); and GABA with bicuculine improves PGI2 response substantially more than bicuculine alone.
(§3) With reference to FIG. 6, the inventor's laboratory data further illustrates that when the endothelium is removed from the pregnant uterine and systemic vessels, respectively, the PGI2 release trends that had been seen in the intact vessels is reversed. As may be observed, PGI2 release in pregnant uterine vessels is reduced in the presence of AII when the endothelium is removed; inversely, PGI2 release in pregnant systemic vessels is increased in the presence of AII when the endothelium is removed.
FIG. 1A illustrates an Ouabain Dose Response Curve (“ODRC”) in pregnant uterine tissue. […] This may indicate inactivity of the GABA-a/AT1 construct without Taurine. It may have been expected that substantially less PGI2 would be released without AII than with AII. […] This may indicate an active GABA-a/AT1 construct under such conditions. […] Accordingly, the inventor has surmised that non-pregnant normotensive systemic vessel behave similarly to pregnant uterine vessels when exposed to Ouabain, releasing higher levels of PGI2 in the presence of GABA and AII.
This increase in PGI2 release in the presence of higher Ouabain may explain the EO resistance noted in pregnancy.

In assay [2] the test system is intact nonpregnant systemic vessels. Put plainly: PGI2 release in intact nonpregnant systemic vessels (GABA dose response curves). Further details: species or system sheep. The following applies: for PGI2 levels on addition of Nanomolar Ouabain: most concentrations of GABA. From the text:
In FIGS. 2A-2C, GABA dose response curves of systemic vessels in 18 day postpartum sheep are provided. These vessels are believed to be representative of non-pregnant normotensive systemic vessels. […] Accordingly, it appears that at least one of Taurine or EO (or the like) may be needed to up-regulate the GABA-a receptor to augment PGI2 levels in the presence of nanomolar ouabain, or may at least be substantially helpful to increase PGI2 levels.
In FIG. 2C, the systemic vessels react to variable GABA in a similar manner as pregnant uterine vessels (see, e.g., FIG. 1B), but only in the presence of Ouabain.
Accordingly, the inventor has unexpectedly discovered that Ouabain exposure may modulate the PGI2 response through interaction with the GABA-a/AT1 construct.

Assay [3] relates to pregnant systemic arteries. As to the kind of experiment: PGI2 release in pregnant systemic arteries.
Description: During experimentation between uterine vessels and systemic vessels during pregnancy, an inverse response between uterine and systemic vessels and their levels of PGI2 release was found. […] Pregnant uterine vessels, however, required GABA and angiotensin II to increase PGI2. The inventor has surmised that this mechanism is likely feto-productive in cases of hemorrhage and low blood volume during pregnancy. During these times, AII increases, dilating the uterine circuit and constricting the systemic circuit, thereby allowing the maternal blood to pass by the baby, prolonging the baby's chances of survival.
as §1, §2, §3

The test system of assay [4] is Cyclooxygenase (COX). To be noted: humans or rats, pharmacological blockade of COX; cited from earlier work.
For assay [5] the following is noted: cited from earlier work.

Entries after “also recorded” stand apart in the source; their conditions may differ. Read-outs that look alike come from different tables or passages of the source.

Consider `C[C@@H]1O[C@@H](O[C@H]2C[C@@H](O)[C@]3(CO)[C@H]4[C@H](O)C[C@]5(C)[C@@H](C6=CC(=O)OC6)CC[C@]5(O)[C@@H]4CC[C@]3(O)C2)[C@H](O)[C@H](O)[C@H]1O` [Ouabain], for which the “PGI2 release with increase in Ouabain” value in assay [1] (pregnant uterine vessels, Ouabain from 10^−10 M to 10^−9 M, low taurine, GABA approx. −7 M (FIGS. 4A, 4B)) is “higher PGI2 release”. Besides, the “PGI2 levels on addition of Nanomolar Ouabain” value in assay [2] (with AII, no Taurine (FIG. 2C)) was “significant increase in PGI2 levels”; in assay [2] (without AII, no Taurine (FIG. 2B)), “significant increase in PGI2 levels”.

In the case of Angiotensin II [AII], in assay [1] (pregnant uterine arteries, GABA provided, without taurine, various levels of Ouabain (FIG. 1A)), the “Effect of presence or absence of AII on PGI2 release” value is recorded as “negligible effect on PGI2 release”. The “PGI2 release on further addition of AII” value in assay [1] (pregnant uterine arteries, bicuculine and GABA present (FIG. 5B col. 4)) is given as “even further decreased PGI2”. Moreover, the “PGI2 release with versus without AII” value in assay [1] (pregnant uterine circuit, most levels of GABA, no Taurine, no Ouabain (FIG. 3A)) is given as “more PGI2 is released in the presence of AII”. Besides, the “PGI2 release in the presence of AII, endothelium removed” value in assay [1] (pregnant uterine vessels, endothelium removed (FIG. 6)) is given as “reduced”; in assay [3] (pregnant systemic vessels, endothelium removed (FIG. 6)), “increased”. In addition, the “Relationship between PGI2 release and AII presence” value in assay [3] (pregnant systemic circuit, various GABA levels, compared with uterine circuit (FIG. 3B)) is listed as “substantially inverted”. The “PGI2 formation by presence or absence of Angiotensin II” value in assay [2] (18 day postpartum sheep, intact systemic vessels exposed to GABA, without Taurine or EO (FIG. 2A)) is reported as “no significant PGI2 formation”. In assay [2] (in the presence of Ouabain, especially at higher concentrations of GABA (FIGS. 2B vs 2C)), the “PGI2 release on addition of AII” value is “substantially more PGI2 release”.

`COc1ccc2c(c1)c(CC(=O)O)c(C)n2C(=O)c1ccc(Cl)cc1` [indomethacin]: the Resting blood pressure result in assay [4] is reported as “does not substantially affect resting blood pressure”.

Turning to `CN1CCc2cc3c(cc2[C@H]1[C@@H]1OC(=O)c2c1ccc1c2OCO1)OCO3` [bicuculine], the “PGI2 release on blocking GABA-a receptors” value in assay [1] (pregnant uterine arteries, even when additional GABA was added (FIG. 5B)) is listed as “reduced PGI2 release in both circuits; also recorded: substantially reduced PGI2 release”; in assay [3] (pregnant systemic vessels (FIG. 5A)), “reduced PGI2 release in both circuits”.

With `NCCS(=O)(=O)O` [Taurine, 2-amino-ethane sulfonic acid], the “Overall PGI2 release with versus without Taurine” value in assay [1] (pregnant uterine arteries, regardless of AII presence (FIG. 1A vs 1B)) is “overall PGI2 release appears higher without Taurine”.

Turning to `NCCCC(=O)O` [GABA], the “PGI2 release on addition of GABA” value in assay [1] (pregnant uterine arteries, GABA alone, no AII (FIG. 5B col. 2)) is recorded as “insignificant effect on PGI2 release”. Moreover, the “PGI2 release on addition of GABA and AII” value in assay [1] (pregnant uterine arteries, GABA with AII (FIG. 5B col. 1)) is given as “increased PGI2 release”. For the same molecule, in assay [3] (pregnant systemic vessels, absence of angiotensin II), the “PGI2 release on exposure to GABA” value is “increased PGI2 release”. In addition, the “PGI2 response to GABA” value in assay [2] (18 day postpartum sheep systemic vessels, no EO or Taurine (FIG. 2A)) is “no PGI2 response”. Moreover, the Blood pressure result in assay [5] (normotensive patients) is listed as “no effect”.

On to `CC(=O)Oc1ccccc1C(=O)O` [aspirin], for which the Resting blood pressure result in assay [4] was “does not substantially affect resting blood pressure”.

For the molecule `CCCCOC(=O)NS(=O)(=O)c1sc(CC(C)C)cc1-c1ccc(Cn2ccnc2)cc1` [C21], in assay [5] (eHTN humans), the Blood pressure entry is listed as “not shown to reduce blood pressure”.
